In test [1] the test system is NCI-N87 (Human Gastric Cancer Cell). The test can be described thus: Bioactivity detection of NCI-N87 cell growth inhibition (CellTiter-Glo). The conditions noted are these: NCI-N87 cells, 72 hours, highest concentration 10 μM, read-out: N87 CTG IC50. The format is cell-based. Here is the method:
This detection method is used to evaluate the biological activity of the compounds described in this disclosure at the cellular level.
(§1) NCI-N87 cells (purchased from the Chinese Academy of Sciences) were harvested, resuspended in complete medium and adjusted to a cell density of 0.1×10^6 cells per ml. The cell suspension was added to a 96-well plate at a volume of 100 μL per well and cultured overnight in a 37° C., 5% CO2 incubator. Prepare the test compound and add it to the cell plate so that the highest concentration of the compound is 10 μM. Set 8 concentration points according to 3-fold dilution. At the same time, 100% inhibition control wells were set, that is, wells with no cells but only an equal volume of complete culture medium; and 0% inhibition control wells, that is, wells with cells added with 0.1% DMSO. The cell plate was cultured at 37° C. and 5% CO2 for 72 hours. Remove the cell culture plate and add 25 μl CellTiter-Glo Luminescent Cell Viability Reagent (promega cat #G7573) to each well. Incubate in the dark for 10 minutes and then transfer 100 μL to a white plate and use Molecular Devices SpectraMax i3 to detect chemiluminescence. The inhibition rate was calculated using the following formula for data processing: compound inhibition rate=(0% inhibition control well signal−compound treatment well signal)/(0% inhibition control well signal−100% inhibition control well signal)*10000. The calculated data were fitted with four parameters using GraphPad Prism software and the corresponding IC50 was calculated.

Test [2] concerns HGC27 (Human Gastric Cancer Cell). Nature of the test: Bioactivity assay for HGC27 cell growth inhibition (CellTiter-Glo). The format is cell-based. The conditions noted are these: read-out: HGC27 CTG IC50. Here is the method: This detection method is used to evaluate the biological activity of the compounds of the present disclosure at the cellular level.
as §1, with “HGC27” for “NCI-N87”, “0.2×10^6” for “0.1×10^6”, “24” for “72”, “CellTiter-Glo®” for “CellTiter-Glo”, “signal)*100%.” for “signal)*10000.”
(In general: ATP-based viability assays read luminescence as a measure of living cells.)

[3] abbreviates: HGC-27, HGC27 cells, 24 hours, CellTiter-Glo, highest concentration 10 μM.

Structures are written as SMILES. Where two headings read alike, the source gives them in different places.

The results in this text go back to US20260209211A1, “CYCLIN K DEGRADER AND USE THEREOF” (ADLAI NORTYE BIOPHARMA CO., LTD., priority 2022, published 2026).

The term IC50 denotes the concentration that gives 50% inhibition.

Consider `CO[C@@H](C)[C@@H](Nc1nc(NCc2ccc3c(c2)[nH]c2c(C#N)ccnc23)ncc1C(F)(F)F)C(N)=O` [Compound 67], for which the figures for the IC50 in test [1] and in test [2] (setting [3]) were 2.5 nM and 14 nM, respectively.

`Cc1ccnc2c1[nH]c1cc(CNc3ncc(C(F)(F)F)c(N[C@H](C)[C@@H](C)O)n3)ccc12` [Compound 68]: the values for the IC50 in test [1] and in test [2] (setting [3]) were 1 nM and 36 nM, respectively.

In the case of `CC[C@@H](Nc1nc(NCc2ccc3c(c2)[nH]c2c(C)ccnc23)ncc1C(F)(F)F)C(N)=O` [Compound 70], the IC50 in test [1] worked out at 13 nM; in test [2] (setting [3]) it was 112 nM.

Consider `CO[C@@H](C)[C@H](C#N)Nc1nc(NCc2ccc3c(c2)[nH]c2c(CO)ccnc23)ncc1C(F)(F)F` [Compound 71], for which the IC50 was 8.6 nM in test [1] and 68 nM in test [2] (setting [3]).

As for `C[C@@H](O)[C@@H](CO)Nc1nc(NCc2ccc3c(c2)[nH]c2c(C#N)ccnc23)ncc1C(F)(F)F` [Compound 73], the IC50 in test [1] was found to be 3 nM; in test [2] (setting [3]), 6 nM.

In the case of `CO[C@@H](C)[C@@H](Nc1nc(NCc2ccc3c(c2)[nH]c2c(CO)ccnc23)ncc1C#N)C(N)=O` [Compound 74], the IC50 in test [1] was 75 nM; in test [2] (setting [3]), 128 nM.

`OCc1ccnc2c1[nH]c1cc(CNc3ncc(C(F)(F)F)c(N[C@@H]4CNCC[C@@H]4O)n3)ccc12` [Compound 75]: the IC50 in test [1] is 22 nM; in test [2] (setting [3]), 38 nM.

Regarding `OCc1ccnc2c1[nH]c1cc(CNc3ncc(C(F)(F)F)c(N[C@@H]4CCNC[C@@H]4O)n3)ccc12` [Compound 77], the IC50 in test [1] was 61 nM; in test [2] (setting [3]), 151 nM.

`OCc1ccnc2c1[nH]c1cc(CNc3ncc(C(F)(F)F)c(N[C@@H]4CNC[C@@H]4O)n3)ccc12` [Compound 78]: the half-inhibitory concentration (IC50) in test [1] worked out at 120 nM; in test [2] (setting [3]), 244 nM.

As for `CO[C@@H](C)[C@@H](Nc1nc(NCc2ccc3c(c2)nn2c(CO)ccnc32)ncc1C(F)(F)F)C(N)=O` [Compound 79], the IC50 in test [1] stood at 9 nM; in test [2] (setting [3]) it was 38 nM.

Take `OCc1ccnc2c3ccc(CNc4ncc(C(F)(F)F)c(N[C@@H]5CNCC[C@@H]5O)n4)cc3nn12` [Compound 80]: the IC50 in test [1] worked out at 5.4 nM; in test [2] (setting [3]) it was 41 nM.

As to `N#Cc1ccnc2c1[nH]c1cc(CNc3ncc(C(F)(F)F)c(N[C@@H]4CNCC[C@@H]4O)n3)ccc12` [Compound 81], the IC50 in test [1] worked out at 0.8 nM; in test [2] (HGC-27, 24 h), 2 nM.

For `CO[C@@H](C)[C@@H](Nc1nc(NCc2ccc3c(c2)[nH]c2c(CO)ccnc23)ncc1C(F)(F)F)C(N)=O` [Compound 82], the IC50 is 6 nM in test [1] and 28 nM in test [2] (setting [3]).

For the compound `Cc1ccnc2c1[nH]c1cc(CNc3ncc(C(F)(F)F)c(N[C@@H]4CNCC[C@@H]4O)n3)ccc12` [Compound 83], the IC50 in test [1] and in test [2] (setting [3]) was 8 nM in each case.

On to `CC[C@@H](Oc1nc(NCc2ccc3c(c2)[nH]c2c(CN)ccnc23)ncc1C(F)(F)F)C(N)=O` [Compound 84], for which the values for the IC50 in test [1] and in test [2] (setting [3]) were 85 nM and 409 nM, respectively.

In the case of `N#Cc1ccnc2c1[nH]c1cc(CNc3ncc(C(F)(F)F)c(N[C@@H]4CNCC[C@H]4O)n3)ccc12` [Compound 85], the IC50 turned out to be 8.5 nM in test [1] and 17 nM in test [2] (HGC-27, 24 h).

As to `N#Cc1ccnc2c1[nH]c1cc(CNc3ncc(C(F)(F)F)c(N[C@@H]4CNC[C@@H]4O)n3)ccc12` [Compound 86], the IC50 in test [1] amounted to 4 nM; in test [2] (setting [3]), 6 nM.

`N#Cc1ccnc2c1[nH]c1cc(CNc3ncc(C(F)(F)F)c(N[C@@H]4CN(C(=O)CN)CC[C@@H]4O)n3)ccc12` [Compound 87]: the IC50 in test [1] and in test [2] (setting [3]) was 12 nM in each case.

Regarding `CN1CC[C@H](O)[C@H](Nc2nc(NCc3ccc4c(c3)[nH]c3c(C#N)ccnc34)ncc2C(F)(F)F)C1` [Compound 88], the IC50 in test [1] and in test [2] (setting [3]) was 2 nM throughout.

On to `N#Cc1ccnc2c1[nH]c1cc(CNc3ncc(C(F)(F)F)c(N[C@@H]4CCNC[C@@H]4O)n3)ccc12` [Compound 89], for which the IC50 came out at 2.9 nM in test [1] and 2 nM in test [2] (setting [3]).
